Patent US12258337B2, “Bicyclic CX3CR1 receptor agonists” (Board of Regents, The University of Texas System, priority 2019, dated 2025)

Assays:
mouse CX3CR1 receptor = target: T1, mouse CX3CR1 receptor (Mus musculus, UniProt Q9Z0D9); assay: GTPγ[35S] Scintillation Proximity Assay, CHO-K1 cell membranes; format: biochemical
T1 construct: expressed in transfected cells; host or cells: CHO-K1 cell membranes
T1 sequence (Q9Z0D9 1-354): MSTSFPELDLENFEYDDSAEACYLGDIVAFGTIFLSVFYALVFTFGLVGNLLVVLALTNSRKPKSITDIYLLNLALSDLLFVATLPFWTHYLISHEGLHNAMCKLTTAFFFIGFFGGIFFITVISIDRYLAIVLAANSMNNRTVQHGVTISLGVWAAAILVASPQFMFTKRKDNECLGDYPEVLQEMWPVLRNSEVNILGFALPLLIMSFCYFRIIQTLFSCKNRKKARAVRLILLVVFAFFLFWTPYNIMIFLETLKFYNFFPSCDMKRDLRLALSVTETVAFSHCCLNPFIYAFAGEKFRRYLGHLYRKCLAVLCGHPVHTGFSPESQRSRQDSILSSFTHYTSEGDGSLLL
Procedure: (§1) GTPγ[^35S] Scintillation Proximity Assay
(§2) Compounds were tested for agonist activity at the mouse and human CX3CR1 receptor using cell membranes from CHO-K1 cells expressing recombinant mouse or human CX3CR1. For agonist testing, membranes are mixed with GDP. In parallel, GTPγ[^35S] is mixed with the beads just before starting the reaction. The following reagents are successively added in the wells of an Optiplate (Perkin Elmer): 50 μL of test or reference ligand, 10 μL of assay buffer, 20 μL of the membranes:GDP mix, and 20 μL of the GTPγ[^35S]:beads mix. The plates are covered with a top seal, mixed on an orbital shaker for 2 min, and then incubated for 1 hour at room temperature. Then the plates are centrifuged for 10 min at 2000 rpm, incubated at room temperature 1 hour and counted for 1 min/well with a PerkinElmer TopCount reader.

hCX3CR1 = target: T2, hCX3CR1 (Homo sapiens, UniProt P49238); assay: as above; format: biochemical; parameters: expressed in transfected cells; host or cells: CHO-K1 cell membranes
T2 sequence (P49238 1-355): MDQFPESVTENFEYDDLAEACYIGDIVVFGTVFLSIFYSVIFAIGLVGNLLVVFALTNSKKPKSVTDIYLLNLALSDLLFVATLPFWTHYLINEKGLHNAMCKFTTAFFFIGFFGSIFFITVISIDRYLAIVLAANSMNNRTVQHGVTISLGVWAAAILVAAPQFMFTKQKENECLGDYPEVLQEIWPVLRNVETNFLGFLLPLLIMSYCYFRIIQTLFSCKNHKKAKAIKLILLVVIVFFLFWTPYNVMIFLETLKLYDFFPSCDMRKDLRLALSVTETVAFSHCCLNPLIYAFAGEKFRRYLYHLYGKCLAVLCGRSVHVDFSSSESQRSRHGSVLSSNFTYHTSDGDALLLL
Procedure: as §1, §2

[1] = test system: THP-1 cell adhesion to HepG2 cells; assay: CX3CR1-dependent THP-1 cell adhesion to HepG2 cells; format: cell-based; conditions: THP-1 pre-treated with compound 30 min, FIG. 1
Procedure: CX3CR1 Agonists Prevent CX3CR1-Dependent THP-1 Cell Adhesion to HepG2 Cells
This assay measures the adhesion of THP-1 monocytes, which constitutively express CX3CR1, to HepG2 cells, a fractalkine-expressing cell line. Briefly, HepG2 cells were seeded at 80,000 cells per well in 96-well plates and allowed to form a monolayer overnight. The following day, THP-1 cells (at 2×10^6 cells/mL) were fluorescently labeled with Calcein-AM (5 μM) and pre-treated with compound at the doses indicated for 30 min. Labeled THP-1 cells were subsequently seeded (50,000/well) into the HepG2-containing plates and incubated for 30 min before imaging for Calcein-AM signal on the INCell Analyzer Imaging System. After four washes, the plates were imaged once again to calculate THP-1 cell adhesion, as measured by the percentage of cells remaining on the plates. […] These agonists behave as functional antagonists in the cell adhesion assay by blocking the interaction between CX3CR1 and fractalkine.

EC50 (mouse CX3CR1 receptor)	Emax (mouse CX3CR1 receptor)	EC50 (hCX3CR1)	Emax (hCX3CR1)	SMILES	THP-1 cell adhesion to HepG2 cells [1]
41.4 µM	44%	1.3 µM	60%	CC(C)(CNC(=O)c1cc2c(s1)CCCCCC2)CN1CCCC1 [Example 1, N-(2,2-dimethyl-3-pyrrolidin-1-ylpropyl)-4,5,6,7,8,9-hexahydrocycloocta[b]thiophene-2-carboxamide]	prevented THP-1 adhesion to HepG2 cells in a dose-dependent manner
> 50 µM	26%	4.1 µM	61%	CN(C)CC(C)(C)CNC(=O)c1cc2c(s1)CCCCCC2 [Example 70, N-[3-(dimethylamino)-2,2-dimethylpropyl]-4,5,6,7,8,9-hexahydrocycloocta[b]thiophene-2-carboxamide]	
8.5 µM	55%	0.8 µM	80%	CN(C)CC1(CNC(=O)c2cc3c(s2)CCCCCC3)CCCC1 [Example 2, N-[[1-[(dimethylamino)methyl]cyclopentyl]methyl]-4,5,6,7,8,9-hexahydrocycloocta[b]thiophene-2-carboxamide]	prevented THP-1 adhesion to HepG2 cells in a dose-dependent manner
